{"source": "ChEMBL document CHEMBL6078634", "about": "“HDAC8 as a target in drug discovery: Function, structure and design” (Eur J Med Chem, 2024)", "key": {"[1]": {"biological_target": "von Hippel-Lindau disease tumor suppressor/Histone deacetylase 8 (+)", "test": "PROTAC activity at VHL/HDAC8 in human Jurkat cells assessed as induction of HDAC8 degradation measured for 6 hrs by Western blot analysis"}, "[2]": {"biological_target": "Histone deacetylase", "test": "Inhibition of HDAC in human HeLa nuclear extract using Boc-Lys(Ac)-AMC or Boc-Lys(Tfa)-AMC as substrate pre-incubated for 5 mins followed by substrate addition and measured after 30 mins by fluorescence assay", "assay_type": "cell-free"}, "[3]": {"biological_target": "Histone deacetylase 2 (Homo sapiens, UniProt Q92769)", "sequence (Q92769 whole entry)": "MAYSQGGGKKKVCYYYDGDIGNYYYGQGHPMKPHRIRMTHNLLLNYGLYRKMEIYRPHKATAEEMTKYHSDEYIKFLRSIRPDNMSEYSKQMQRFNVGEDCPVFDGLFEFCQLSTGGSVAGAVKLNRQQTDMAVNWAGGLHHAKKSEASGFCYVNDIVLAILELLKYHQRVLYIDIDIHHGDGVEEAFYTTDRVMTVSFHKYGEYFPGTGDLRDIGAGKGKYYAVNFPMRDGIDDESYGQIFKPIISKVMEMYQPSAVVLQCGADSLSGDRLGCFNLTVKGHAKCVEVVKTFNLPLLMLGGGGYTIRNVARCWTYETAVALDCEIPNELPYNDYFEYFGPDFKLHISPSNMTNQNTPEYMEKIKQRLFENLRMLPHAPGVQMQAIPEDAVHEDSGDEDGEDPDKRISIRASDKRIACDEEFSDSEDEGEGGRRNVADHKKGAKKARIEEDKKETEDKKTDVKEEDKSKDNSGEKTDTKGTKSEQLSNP", "test": "Inhibition of HDAC2 (unknown origin)"}, "[4]": {"biological_target": "T1, Histone deacetylase 8 (Homo sapiens, UniProt Q9BY41)", "T1 sequence (Q9BY41 whole entry)": "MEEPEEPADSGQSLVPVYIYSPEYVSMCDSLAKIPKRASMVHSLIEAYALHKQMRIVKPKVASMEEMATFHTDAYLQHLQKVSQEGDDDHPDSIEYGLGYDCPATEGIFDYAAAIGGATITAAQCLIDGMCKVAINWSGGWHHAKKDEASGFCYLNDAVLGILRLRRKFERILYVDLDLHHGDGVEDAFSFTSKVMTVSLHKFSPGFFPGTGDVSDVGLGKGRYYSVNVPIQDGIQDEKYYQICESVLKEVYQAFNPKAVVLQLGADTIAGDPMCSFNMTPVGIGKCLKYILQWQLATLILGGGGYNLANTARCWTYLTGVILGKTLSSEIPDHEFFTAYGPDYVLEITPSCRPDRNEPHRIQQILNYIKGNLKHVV", "test": "Inhibition of HDAC8 (unknown origin) using biotinylated histone H3 KAc peptide (1 to 21 residues) as substrate by HTRF assay"}}}
{"smiles": "O=C1CCC(N2C(=O)c3cccc(NCc4cn(CCOCCOc5ccc(Cn6ccc7ccc(C(=O)NO)cc76)cc5)nn4)c3C2=O)C(=O)N1", "note": "(stereo not given)", "values": [{"measurement": "DC50", "setting": "[1]", "value": 0.58, "unit": "µM"}]}
{"smiles": "COc1ccc(C(=O)NO)cc1OCc1ccc(C(=O)NCCCCCCCCNc2cccc3c2C(=O)N(C2CCC(=O)NC2=O)C3=O)cc1", "note": "(stereo not given)", "values": [{"measurement": "DC50", "setting": "[1]", "value": 0.0018, "unit": "µM"}]}
{"smiles": "COc1ccc(/C=C/C(=O)NO)c(-c2ccc(Br)cc2)c1", "values": [{"measurement": "IC50", "setting": "[2]", "value": "> 10", "unit": "µM"}]}
{"smiles": "O=c1cc(-c2ccccc2)oc2cc(O)cc(O)c12", "note": "[CHRYSIN]", "values": [{"measurement": "IC50", "setting": "[3]", "value": 129, "unit": "µM"}, {"measurement": "IC50", "setting": "[4]", "value": 40.2, "unit": "µM"}]}
